The structures appear in SMILES notation.

Chain of Ba/F3 V617F cells (O60674 whole entry V617F): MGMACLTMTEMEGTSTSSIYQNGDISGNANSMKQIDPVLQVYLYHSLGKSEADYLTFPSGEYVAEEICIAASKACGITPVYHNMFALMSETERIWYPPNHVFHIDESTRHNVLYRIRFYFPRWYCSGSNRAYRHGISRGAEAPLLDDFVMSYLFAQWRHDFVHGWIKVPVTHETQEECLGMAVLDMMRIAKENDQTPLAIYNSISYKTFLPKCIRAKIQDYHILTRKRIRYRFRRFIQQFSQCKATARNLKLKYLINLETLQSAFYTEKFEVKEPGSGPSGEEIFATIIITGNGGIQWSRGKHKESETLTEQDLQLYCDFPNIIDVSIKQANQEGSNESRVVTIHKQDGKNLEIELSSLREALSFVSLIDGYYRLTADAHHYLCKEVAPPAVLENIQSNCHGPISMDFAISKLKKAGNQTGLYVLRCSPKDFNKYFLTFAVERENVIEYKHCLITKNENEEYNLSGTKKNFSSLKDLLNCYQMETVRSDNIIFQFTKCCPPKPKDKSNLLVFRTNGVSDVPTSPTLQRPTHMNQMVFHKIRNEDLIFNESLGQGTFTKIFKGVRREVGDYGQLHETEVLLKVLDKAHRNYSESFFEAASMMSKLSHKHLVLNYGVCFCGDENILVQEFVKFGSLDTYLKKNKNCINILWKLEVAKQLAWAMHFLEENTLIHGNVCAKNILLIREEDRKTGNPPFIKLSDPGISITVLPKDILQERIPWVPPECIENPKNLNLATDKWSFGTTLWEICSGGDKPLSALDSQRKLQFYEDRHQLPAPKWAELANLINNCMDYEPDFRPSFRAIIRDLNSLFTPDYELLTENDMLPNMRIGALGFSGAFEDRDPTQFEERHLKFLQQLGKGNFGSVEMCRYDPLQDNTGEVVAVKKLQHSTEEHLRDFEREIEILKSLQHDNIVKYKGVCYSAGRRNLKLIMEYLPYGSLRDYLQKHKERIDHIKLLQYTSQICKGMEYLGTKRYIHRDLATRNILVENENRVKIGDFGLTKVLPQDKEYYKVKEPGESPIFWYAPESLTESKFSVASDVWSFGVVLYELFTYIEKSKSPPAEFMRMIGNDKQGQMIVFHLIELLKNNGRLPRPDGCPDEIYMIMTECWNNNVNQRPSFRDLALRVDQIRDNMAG

One test addresses Ba/F3 V617F cells (Homo sapiens, UniProt O60674, V617F, cells depend on it). In words: Proliferation assay (Cell Titer-Glo, 72 h) utilizing Ba/F3 V617F cells. The class given is cell-based, mouse. Particulars: Ba/F3 V617F cells, proliferation, level of activity to inhibit JAK2, read-out: IC50 (the source's name). The gist of the method:
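Readout is CellTiter-Glo luminescence after 72 h at 37 °C, giving IC50. Cells: Ba/F3 V617F, 1×10^5 cells/mL in RPMI with 10% FBS, treated in duplicate with 3-fold dilution series made from 5 mM DMSO stock, 1:250 in 5% FBS medium, added at 2×.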
A general note: ATP-based viability assays read luminescence as a measure of living cells.
In the case of `CN1C[C@@H]2C[C@H]1CN2c1ccc(Nc2nccc(-c3ccc(NC(=O)NC4CC4)cc3)n2)cc1` [compound 139, 4-(4-(3-cyclopropylureido)phenyl)-N-(4-((1S,4S)-5-methyl-2,5-diazabicyclo[2.2.1]heptan-2-yl)phenyl)pyrimidin-2-amine], the GI50 was below 1000 nM.
As to `Cc1cc(Nc2nccc(-c3ccc(NC(=O)CN4CCOCC4)nc3)n2)ccc1N1C[C@@H]2C[C@H]1CN2C` [compound 141, 4-(6-(2-(morpholin-4-yl)acetamido)pyridin-3-yl)-N-(3-methyl-4-((1S,4S)-5-methyl-2,5-diazabicyclo[2.2.1]heptan-2-yl)phenyl)pyrimidin-2-amine], the GI50 was below 1000 nM.
For `CN1C[C@@H]2C[C@H]1CN2c1ccc(Nc2nccc(-c3ccc(NC(=O)CN4CCOCC4)nc3)n2)cc1` [compound 142, 4-(6-(2-(morpholin-4-yl)acetamido)pyridin-3-yl)-N-(4-((1S,4S)-5-methyl-2,5-diazabicyclo[2.2.1]heptan-2-yl)phenyl)pyrimidin-2-amine], the GI50 was 1000 to 10000 nM.
As for `CN1C[C@@H]2C[C@H]1CN2c1ccc(Nc2nccc(-c3ccc(NC(=O)CN4CCOCC4)nc3)n2)cc1F` [compound 143, 4-(6-(2-(morpholin-4-yl)acetamido)pyridin-3-yl)-N-(3-fluoro-4-((1S,4S)-5-methyl-2,5-diazabicyclo[2.2.1]heptan-2-yl)phenyl)pyrimidin-2-amine], the GI50 lay within 1000 to 10000 nM.
Still for that read-out and setting: the value for `CC(=O)Nc1ccc(-c2ccnc(Nc3ccc(N4C[C@@H]5C[C@H]4CO5)c(C)c3)n2)cn1` [compound 147, 4-(6-(acetamido)pyridin-3-yl)-N-(3-methyl-4-((1S,4S)-5-oxa-2-azabicyclo[2.2.1]heptan-2-yl)phenyl)pyrimidin-2-amine] was below 1000 nM; that for `CCC(=O)N1C[C@@H]2C[C@H]1CN2c1ccc(Nc2nccc(-c3ccc(N)nc3)n2)cc1C` [compound 148, 4-(6-aminopyridin-3-yl)-N-(3-methyl-4-((1S,4S)-5-ethylcarbonyl-2,5-diazabicyclo[2.2.1]heptan-2-yl)phenyl)pyrimidin-2-amine] was below 1000 nM.

The test is the same for the next values; noted with them: inhibition of JAK2 activity, proliferation of Ba/F3 V617F cells, read-out: IC50 (the source's name).
As for `Cc1cc(Nc2nccc(-c3cnc4c(c3)OC(C)(C)C(=O)N4)n2)cnc1N1C[C@@H]2C[C@H]1CN2C` [compound 138, 4-(2,2-dimethyl-3-oxo-3,4-dihydro-2H-pyrido[3,2-b][1,4]oxazin-7-yl)-N-(5-methyl-6-((1S,4S)-5-methyl-2,5-diazabicyclo[2.2.1]heptan-2-yl)pyridin-3-yl)pyrimidin-2-amine], the GI50 is below 1000 nM.
Still for that read-out and setting: the value for `Cc1cc(Nc2nccc(-c3ccc(NC(=O)NC4CC4)cc3)n2)cnc1N1C[C@@H]2C[C@H]1CN2C` [compound 140, 4-(4-(3-cyclopropylureido)phenyl)-N-(5-methyl-6-((1S,4S)-5-methyl-2,5-diazabicyclo[2.2.1]heptan-2-yl)pyridin-3-yl)pyrimidin-2-amine] was 1000 to 10000 nM; that for `Cc1cc(Nc2nccc(-c3ccc(NC(=O)CN4CCOCC4)nc3)n2)cnc1N1C[C@@H]2C[C@H]1CN2C` [compound 144, 4-(6-(2-(morpholin-4-yl)acetamido)pyridin-3-yl)-N-(5-methyl-6-((1S,4S)-5-methyl-2,5-diazabicyclo[2.2.1]heptan-2-yl)pyridin-3-yl)pyrimidin-2-amine] was 1000 to 10000 nM.
`Cc1cc(Nc2nccc(-c3ccc(N)nc3)n2)cnc1N1C[C@@H]2C[C@H]1CN2C` [compound 145, 4-(6-aminopyridin-3-yl)-N-(5-methyl-6-((1S,4S)-5-methyl-2,5-diazabicyclo[2.2.1]heptan-2-yl)pyridin-3-yl)pyrimidin-2-amine]: the GI50 was below 1000 nM.
The same measure, in the same setting: to `CC(=O)Nc1ccc(-c2ccnc(Nc3cnc(N4C[C@@H]5C[C@H]4CN5C)c(C)c3)n2)cn1` [compound 146, 4-(6-(acetamido)pyridin-3-yl)-N-(5-methyl-6-((1S,4S)-5-methyl-2,5-diazabicyclo[2.2.1]heptan-2-yl)pyridin-3-yl)pyrimidin-2-amine] belongs 1000 to 10000 nM.

The values above are taken from patent US9624229B2, “Pyrimidine-2-amine compounds and their use as inhibitors of JAK kinases” (Rigel Pharmaceuticals, Inc., priority 2008, dated 2017).
